Experiment [1] relates to HEK293 cells overexpressing the SNAP-β2 adrenergic receptor (Gs signaling pathway). In words: Whole-cell Iso-induced cAMP accumulation assay. In kind it is cell-based.
The test system of experiment [2] is Gi signaling (δ–opioid receptor, AC). Briefly: Cell-free ELISA-based cAMP assay on NG108–15 membrane preparations. It counts as biochemical. As to conditions: Fsk+DADLE. Background: An ELISA detects its analyte on a solid surface through an enzyme-linked reagent.
The subject of experiment [3] is Gs signaling (β2–adrenergic receptor, AC). The experiment is described as above. It counts as biochemical.
Experiment [4] concerns the target fluorescein-labeled KB-752. In words: MST.
For another experiment, the target named is Gαi1·GDP (UniProt P63096 2-354). In words: MST.

Ends that are not written are not given here.

Gαi1·GDP (UniProt P63096 2-354), sequence (P63096 2-354): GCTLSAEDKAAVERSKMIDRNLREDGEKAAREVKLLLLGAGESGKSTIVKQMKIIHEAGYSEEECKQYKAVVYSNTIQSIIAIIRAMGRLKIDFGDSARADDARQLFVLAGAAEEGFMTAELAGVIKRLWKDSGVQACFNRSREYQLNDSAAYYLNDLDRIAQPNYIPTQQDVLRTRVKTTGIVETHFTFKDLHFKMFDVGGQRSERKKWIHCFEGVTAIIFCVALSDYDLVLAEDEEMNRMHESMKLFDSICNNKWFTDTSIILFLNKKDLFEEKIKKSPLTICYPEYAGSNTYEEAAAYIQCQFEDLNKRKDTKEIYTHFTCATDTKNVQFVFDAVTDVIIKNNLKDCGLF

In the case of SRVTWYDFLMEDTKSR-OH [KB–752], in experiment [1], the “effect on Gαs in the whole cell assay” value is listed as “no effect”. For the same molecule, the “effect on DADLE-mediated inhibition of the AC activity” value in experiment [2] is “no effect”. Further, the “effect on Gs signaling / functional regulation of Gαs in cell-free ELISA” value in experiment [3] is “inhibit Gs signaling”.

On to “Gαi1·GDP (from UniProt P63096 2-354) (natural protein)”, for which the Kd (usually the concentration at which binding is half-saturated) in experiment [4] was 345 nM.

B1: GPM-1 Y5A, fluorescein-labeled (peptide)
peptide: {5(6)‑carboxyfluorescein}-RWLRALRYP
In the experiment with Gαi1·GDP, B1 showed a Kd of 285 ± 40 nM.

Values taken from paper PMC11002716 (ACS chemical biology, 2022).
